Each block holds one molecule with its values, some of them ahead of it.
Tests used:
[1] = system: 2-oxocarboxylic acid reductase
[2] = system: 2-oxocarboxylic acid reductase; experiment: Relative rates of reduction of 2-oxocarboxylic acids, enzyme from P. vulgaris; assay type: biochemical, Proteus vulgaris; details: rate for phenylpyruvate taken as 1
Procedure: In an electrochemical cell, 25 ml of a solution of 100 mM potassium phosphate buffer at pH 7.0, 4 mM methylviologen and 40 mM phenylpyruvate were reduced with 0.5 mg of 2-oxoacid reductase according to Example 3 at a voltage of -700 mV, against a standard calomel electrode. The current of 5.8 mA decreased sharply after 9 hours. According to HPLC analysis, the reaction solution contained 88% of the phenyllactic acid expected. The solution was acidified to pH 1.8 with dilute sulfuric acid and then extracted with ether. […] A pure commercial preparation of (2S)-sodium phenyllactate gave a value of -21.4°, measured under the same conditions. (R)-mandelic acid and (R)-2-hydroxy-4-methylpentanoate were prepared by a similar method.
3-Oxocarboxylic acids and hydroxyacetone are not reduced.

[3] = system: 2-oxocarboxylic acid reductase; experiment: Relative rates of reduction of 2-oxocarboxylic acids, enzyme from P. mirabilis; assay type: biochemical, Proteus mirabilis; details: for Relative rates (of reduction): P. mirabilis enzyme, rate for phenylpyruvate taken as 1
[4] = system: 2-oxocarboxylic acid reductase; experiment: Initial rates with increasing concentrations of oxidized methylviologen, P. vulgaris enzyme; assay type: biochemical, Proteus vulgaris; details: 2-oxo-4-methylpentanoate, pH 7.0
Procedure: (§1) In the presence of increasing concentrations of MV^++ and 0.15 mM MV^+, the initial rates show the following behavior:
(§2) (0.3 ml of 0.1M trisacetate buffer of pH 7.0, 2 μmole of 2-oxo-4-methylpentanoate, the same amount of enzyme in each case, 0.2 mM of reduced methylviologen and the concentrations of oxidized methylviologen stated in the table were incubated in a 2 mm cell.)

[5] = system: 2-oxocarboxylic acid reductase; experiment: Initial rates with increasing concentrations of oxidized methylviologen, P. mirabilis enzyme; assay type: biochemical, Proteus mirabilis; details: for Initial rate: P. mirabilis, 2-oxo-4-methylpentanoate, pH 7.0
Procedure: as §1, §2

SMILES: O=C(O)CN(CCN(CC(=O)O)CC(=O)O)CC(=O)O [EDTA]
effect on the activity of the enzyme [1]: not affected

Relative rates (of reduction) [2]: 0.04
Relative rates (of reduction) [3]: 0.07
SMILES: CC(C)(CO)C(=O)C(=O)O [2-Oxopantoate]

Reduction by the enzyme (in words) [3]: not reduced
Relative rates (of reduction) [3]: 0
SMILES: CC(=O)CO [Hydroxyacetone]

SMILES: C[n+]1ccc(-c2cc[n+](C)cc2)cc1 [MV^++, methylviologen]
Initial rate ([4]; MV++ 0.01 mM): 13.3 U/ml
Initial rate ([4]; MV++ 0.08 mM): 24.4 U/ml
Initial rate ([4]; MV++ 0.16 mM): 31.3 U/ml
Initial rate ([4]; MV++ 0.75 mM): 41.5 U/ml
effect on the activity of the enzyme (in words) [5]: can be increased
Initial rate ([5]; MV++ 0.01 mM): 18.1 U/ml
Initial rate ([5]; MV++ 0.08 mM): 41.9 U/ml
Initial rate ([5]; MV++ 0.16 mM): 46.0 U/ml
Initial rate ([5]; MV++ 0.75 mM): 62.0 U/ml
